Earlier results in patent publication US20060275372A1 (Elan Pharma International Limited, priority 2005, published 2006).
Where a name gives a salt, the structure may show the parent alone.

Settings: fasting state as compared to the fed state

bioavailability: limited bioavailability
SMILES: Cc1ccc(NC(=O)c2ccc(CN3CCN(C)CC3)cc2)cc1Nc1nccc(-c2cccnc2)n1 [Imatinib mesylate, 4-[(4-Methyl-1-piperazinyl)methyl]-N-[4-methyl-3-[[4-(3-pyridinyl)-2-pyrimidinyl]amino]-phenyl]benzamide methanesulfonate]
